Measured values as given in the NIST ThermoML archive (doi:10.1021/je020113t).
Numbers after ± are expanded uncertainties.

Conditions: visual observation

Normal melting temperature (Crystal) [°C] | Normal melting temperature (Crystal 1) [°C] | Structure (SMILES)
89.10 ± 0.5 |  | c1c[nH]cn1 [1H-imidazole]
38.4 ± 0.5 |  | Cc1nccn1C [1,2-dimethyl-1H-imidazole]
 | 146 ± 0.5 | Cc1ncc[nH]1 [2-methylimidazole]
